In paper PMC3853718 (Journal of Translational Medicine, 2013):

Tested on: subjects with advanced malignancies
Assay: Phase 1 dose escalation: toxicity, safety and tolerability (DLT, MAD, RP2D, AEs)
[1] = 7.11 mg/m^2 (n = 7), All grades

Procedure: Subjects continued on treatment until there was disease progression, unacceptable toxicity, or the subject withdrew consent. The trial employed an accelerated titration design [16] starting at a dose of 0.33 mg/m^2 (one-sixth of the highest nontoxic dose in dogs).
the dose was doubled in sequential subjects until a DLT was observed or a subject experienced grade 2 toxicity [16]. In the case of an observed grade 2 toxicity, a second subject was enrolled at the same dose level. If the second subject also experienced a grade 2 toxicity, 2 additional subjects were accrued at that dose level for a total of 4 subjects. […] Each subject was allocated to only a single dose level of drug. Dose delay or modification was permitted based on laboratory and clinical assessment performed on the day of treatment.
Dose-limiting toxicities were determined during the first cycle for each dose level. A DLT was defined as any grade 3 or 4 hematologic toxicity lasting for at least 1 week, or as any grade 3 or 4 nonhematologic toxicity. […] Normal alkaline phosphatase level (< grade 1) at screening that rose to greater than or equal to grade 3; grade 1 or 2 alkaline phosphatase level at screening that rose to grade 4; grade 1 or 2 aspartate aminotransferase (AST) and/or alanine aminotransferase (ALT) levels at screening that doubled from baseline to become greater than or equal to grade 3; and any other abnormal nonhematology laboratory value greater than or equal to grade 3 that required medical intervention to treat, led to hospitalization, or persisted for at least 1 week were also considered DLTs.
Adverse events were graded based on the National Cancer Institute Common Terminology Criteria for Adverse Events (NCI CTCAE version 3.0) and were coded using the Medical Dictionary for Regulatory Activities (MedDRA version 13.0).

CCc1cnn2c(NCc3ccc[n+]([O-])c3)cc(N3CCCC[C@H]3CCO)nc12 [dinaciclib]
TEAE: Abdominal distension [1]: 1 (14) n (%) | TEAE: Abdominal pain [1]: 3 (43) n (%) | TEAE: Anemia [1]: 3 (43) n (%) | TEAE: Asthenia [1]: 2 (29) n (%) | TEAE: Back pain [1]: 1 (14) n (%) | TEAE: Constipation [1]: 1 (14) n (%) | TEAE: Cough [1]: 0 n (%) | TEAE: Decreased appetite [1]: 2 (29) n (%) | TEAE: Dehydration [1]: 1 (14) n (%) | TEAE: Diarrhea [1]: 1 (14) n (%) | TEAE: Dizziness [1]: 3 (43) n (%) | TEAE: Dyspnea [1]: 3 (43) n (%) | TEAE: Fatigue [1]: 3 (43) n (%) | TEAE: Flatulence [1]: 2 (29) n (%) | TEAE: Hyperbilirubinemia [1]: 0 n (%) | TEAE: Hyperglycemia [1]: 0 n (%) | TEAE: Hyperuricemia [1]: 0 n (%) | TEAE: Hypokalemia [1]: 1 (14) n (%) | TEAE: Hypophosphatemia [1]: 0 n (%) | TEAE: Increased ALP [1]: 0 n (%) | TEAE: Increased ALT [1]: 0 n (%) | TEAE: Increased AST [1]: 0 n (%) | TEAE: Nausea [1]: 5 (71) n (%) | TEAE: Neutropenia [1]: 0 n (%) | TEAE: Peripheral edema [1]: 1 (14) n (%) | TEAE: Pyrexia [1]: 1 (14) n (%) | TEAE: Subjects with any AE [1]: 7 (100) n (%) | TEAE: Urinary tract infection [1]: 2 (29) n (%) | TEAE: Vomiting [1]: 2 (29) n (%) | TEAE: Weight decreased [1]: 1 (14) n (%) | TEAE: Abdominal distension (7.11 mg/m^2 (n = 7), Grade 3–4): 0 n (%) | TEAE: Abdominal pain (7.11 mg/m^2 (n = 7), Grade 3–4): 1 (14) n (%) | TEAE: Anemia (7.11 mg/m^2 (n = 7), Grade 3–4): 2 (29) n (%) | TEAE: Asthenia (7.11 mg/m^2 (n = 7), Grade 3–4): 0 n (%) | TEAE: Back pain (7.11 mg/m^2 (n = 7), Grade 3–4): 0 n (%) | TEAE: Constipation (7.11 mg/m^2 (n = 7), Grade 3–4): 0 n (%) | TEAE: Cough (7.11 mg/m^2 (n = 7), Grade 3–4): 0 n (%) | TEAE: Decreased appetite (7.11 mg/m^2 (n = 7), Grade 3–4): 0 n (%) | TEAE: Dehydration (7.11 mg/m^2 (n = 7), Grade 3–4): 0 n (%) | TEAE: Diarrhea (7.11 mg/m^2 (n = 7), Grade 3–4): 0 n (%) | TEAE: Dizziness (7.11 mg/m^2 (n = 7), Grade 3–4): 0 n (%) | TEAE: Dyspnea (7.11 mg/m^2 (n = 7), Grade 3–4): 1 (14) n (%) | TEAE: Fatigue (7.11 mg/m^2 (n = 7), Grade 3–4): 0 n (%) | TEAE: Flatulence (7.11 mg/m^2 (n = 7), Grade 3–4): 0 n (%) | TEAE: Hyperbilirubinemia (7.11 mg/m^2 (n = 7), Grade 3–4): 0 n (%) | TEAE: Hyperglycemia (7.11 mg/m^2 (n = 7), Grade 3–4): 0 n (%) | TEAE: Hyperuricemia (7.11 mg/m^2 (n = 7), Grade 3–4): 0 n (%) | TEAE: Hypokalemia (7.11 mg/m^2 (n = 7), Grade 3–4): 0 n (%) | TEAE: Hypophosphatemia (7.11 mg/m^2 (n = 7), Grade 3–4): 0 n (%) | TEAE: Increased ALP (7.11 mg/m^2 (n = 7), Grade 3–4): 0 n (%) | TEAE: Increased ALT (7.11 mg/m^2 (n = 7), Grade 3–4): 0 n (%) | TEAE: Increased AST (7.11 mg/m^2 (n = 7), Grade 3–4): 0 n (%) | TEAE: Nausea (7.11 mg/m^2 (n = 7), Grade 3–4): 0 n (%) | TEAE: Neutropenia (7.11 mg/m^2 (n = 7), Grade 3–4): 0 n (%) | TEAE: Peripheral edema (7.11 mg/m^2 (n = 7), Grade 3–4): 0 n (%) | TEAE: Pyrexia (7.11 mg/m^2 (n = 7), Grade 3–4): 0 n (%) | TEAE: Subjects with any AE (7.11 mg/m^2 (n = 7), Grade 3–4): 4 (57) n (%) | TEAE: Urinary tract infection (7.11 mg/m^2 (n = 7), Grade 3–4): 0 n (%) | TEAE: Vomiting (7.11 mg/m^2 (n = 7), Grade 3–4): 1 (14) n (%) | TEAE: Weight decreased (7.11 mg/m^2 (n = 7), Grade 3–4): 0 n (%) | TEAE: Abdominal distension (10 mg/m^2 (n = 3), All grades): 0 n (%) | TEAE: Abdominal pain (10 mg/m^2 (n = 3), All grades): 1 (33) n (%) | TEAE: Anemia (10 mg/m^2 (n = 3), All grades): 0 n (%) | TEAE: Asthenia (10 mg/m^2 (n = 3), All grades): 0 n (%) | TEAE: Back pain (10 mg/m^2 (n = 3), All grades): 0 n (%) | TEAE: Constipation (10 mg/m^2 (n = 3), All grades): 2 (67) n (%) | TEAE: Cough (10 mg/m^2 (n = 3), All grades): 0 n (%) | TEAE: Decreased appetite (10 mg/m^2 (n = 3), All grades): 0 n (%) | TEAE: Dehydration (10 mg/m^2 (n = 3), All grades): 0 n (%) | TEAE: Diarrhea (10 mg/m^2 (n = 3), All grades): 1 (33) n (%) | TEAE: Dizziness (10 mg/m^2 (n = 3), All grades): 0 n (%) | TEAE: Dyspnea (10 mg/m^2 (n = 3), All grades): 0 n (%) | TEAE: Fatigue (10 mg/m^2 (n = 3), All grades): 0 n (%) | TEAE: Flatulence (10 mg/m^2 (n = 3), All grades): 0 n (%) | TEAE: Hyperbilirubinemia (10 mg/m^2 (n = 3), All grades): 0 n (%) | TEAE: Hyperglycemia (10 mg/m^2 (n = 3), All grades): 1 (33) n (%) | TEAE: Hyperuricemia (10 mg/m^2 (n = 3), All grades): 0 n (%) | TEAE: Hypokalemia (10 mg/m^2 (n = 3), All grades): 1 (33) n (%) | TEAE: Hypophosphatemia (10 mg/m^2 (n = 3), All grades): 0 n (%) | TEAE: Increased ALP (10 mg/m^2 (n = 3), All grades): 0 n (%) | TEAE: Increased ALT (10 mg/m^2 (n = 3), All grades): 0 n (%) | TEAE: Increased AST (10 mg/m^2 (n = 3), All grades): 0 n (%) | TEAE: Nausea (10 mg/m^2 (n = 3), All grades): 1 (33) n (%) | TEAE: Neutropenia (10 mg/m^2 (n = 3), All grades): 1 (33) n (%) | TEAE: Peripheral edema (10 mg/m^2 (n = 3), All grades): 0 n (%) | TEAE: Pyrexia (10 mg/m^2 (n = 3), All grades): 0 n (%) | TEAE: Subjects with any AE (10 mg/m^2 (n = 3), All grades): 3 (100) n (%) | TEAE: Urinary tract infection (10 mg/m^2 (n = 3), All grades): 1 (33) n (%) | TEAE: Vomiting (10 mg/m^2 (n = 3), All grades): 2 (67) n (%) | TEAE: Weight decreased (10 mg/m^2 (n = 3), All grades): 0 n (%) | TEAE: Abdominal distension (10 mg/m^2 (n = 3), Grade 3–4): 0 n (%) | TEAE: Abdominal pain (10 mg/m^2 (n = 3), Grade 3–4): 0 n (%) | TEAE: Anemia (10 mg/m^2 (n = 3), Grade 3–4): 0 n (%) | TEAE: Asthenia (10 mg/m^2 (n = 3), Grade 3–4): 0 n (%) | TEAE: Back pain (10 mg/m^2 (n = 3), Grade 3–4): 0 n (%) | TEAE: Constipation (10 mg/m^2 (n = 3), Grade 3–4): 0 n (%) | TEAE: Cough (10 mg/m^2 (n = 3), Grade 3–4): 0 n (%) | TEAE: Decreased appetite (10 mg/m^2 (n = 3), Grade 3–4): 0 n (%) | TEAE: Dehydration (10 mg/m^2 (n = 3), Grade 3–4): 0 n (%) | TEAE: Diarrhea (10 mg/m^2 (n = 3), Grade 3–4): 0 n (%) | TEAE: Dizziness (10 mg/m^2 (n = 3), Grade 3–4): 0 n (%) | TEAE: Dyspnea (10 mg/m^2 (n = 3), Grade 3–4): 0 n (%) | TEAE: Fatigue (10 mg/m^2 (n = 3), Grade 3–4): 0 n (%) | TEAE: Flatulence (10 mg/m^2 (n = 3), Grade 3–4): 0 n (%) | TEAE: Hyperbilirubinemia (10 mg/m^2 (n = 3), Grade 3–4): 0 n (%)
